According to ChEMBL document CHEMBL3988442, “University of Dundee, Small-Polar-MMV Screening Library” (2021):
“And” between values parts separate entries of the source, which are not always exact repeats. Identical values can stand only once.

Legend:
[1] = biological target: T1, Coenzyme A biosynthesis bifunctional protein CoaBC (Mycobacterium tuberculosis (strain ATCC 25618 / H37Rv), UniProt P9WNZ1); assay: Biomol Green assay for MtCoaBC inhibitor, OD650 read; format: functional
T1 sequence (P9WNZ1 whole entry): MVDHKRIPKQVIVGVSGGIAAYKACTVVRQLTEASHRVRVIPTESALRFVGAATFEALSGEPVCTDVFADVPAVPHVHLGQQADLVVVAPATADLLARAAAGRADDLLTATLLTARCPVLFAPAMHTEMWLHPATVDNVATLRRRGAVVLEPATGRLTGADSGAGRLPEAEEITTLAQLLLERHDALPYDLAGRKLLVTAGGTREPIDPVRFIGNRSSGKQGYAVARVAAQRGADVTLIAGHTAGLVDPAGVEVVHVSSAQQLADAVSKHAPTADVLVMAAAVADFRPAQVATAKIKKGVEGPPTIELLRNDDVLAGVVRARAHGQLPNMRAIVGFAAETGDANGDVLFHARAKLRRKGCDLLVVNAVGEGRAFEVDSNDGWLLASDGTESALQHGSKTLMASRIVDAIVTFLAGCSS

Histidine--tRNA ligase = biological target: T2, Histidine--tRNA ligase (Leishmania infantum, UniProt A4I591); assay: Leishmania infantum Histidine tRNA synthetase (LdHisRS); format: functional
T2 sequence (A4I591 whole entry): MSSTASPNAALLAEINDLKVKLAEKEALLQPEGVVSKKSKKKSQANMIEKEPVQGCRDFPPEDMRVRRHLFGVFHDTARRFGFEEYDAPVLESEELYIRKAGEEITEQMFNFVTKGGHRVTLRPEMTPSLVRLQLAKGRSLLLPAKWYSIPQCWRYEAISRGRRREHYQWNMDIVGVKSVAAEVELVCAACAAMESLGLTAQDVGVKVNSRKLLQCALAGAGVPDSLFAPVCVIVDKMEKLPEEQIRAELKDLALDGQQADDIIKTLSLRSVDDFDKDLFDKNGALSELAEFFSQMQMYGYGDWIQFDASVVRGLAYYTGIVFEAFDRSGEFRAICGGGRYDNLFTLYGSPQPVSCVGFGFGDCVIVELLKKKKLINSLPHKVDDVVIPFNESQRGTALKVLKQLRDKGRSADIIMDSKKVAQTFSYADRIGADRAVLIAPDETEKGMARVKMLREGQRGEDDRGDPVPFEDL

SMILES	IC50 [1]	IC50 (Histidine--tRNA ligase)
O=C1CN(Cc2occc2C(=O)NCCc2ccc(F)cc2)CCN1	> 30.2 µM	–
O=C(CCNc1ccccc1)NC1CCN(C(=O)C2CCCCC2)CC1	> 30.2 µM	–
O=C(NCc1cccnc1N1CCc2ccccc2C1)c1cc(=O)[nH][nH]1	> 30.2 µM	44.8 µM and 45.1 µM
CN(C)c1ncc(CN2CCCC(Nc3ccc4c(c3)OCCO4)C2)s1 (centres undefined)	> 30.2 µM	–
Cc1cnn(Cc2ccc(NC(=O)N3CCCC3)cc2)c1	> 30.2 µM	–
Cc1cc(C)n(-c2cccc(C(=O)Nc3n[nH]c(C4CCCO4)n3)c2)n1 (centres undefined)	> 30.2 µM	–
Cc1cccc(CN(C(=O)CCn2cncn2)C(C)C)c1	> 30.2 µM	–
Cc1nc(C)c(CC(=O)N2CCC(c3ccn4nccc4n3)CC2)s1	> 30.2 µM	–
CN(Cc1ccccc1)C(=O)Cn1nc(N2CCOCC2)ccc1=O	> 30.2 µM	–
Cc1ccc(-n2c(O)cc(C)c(C#N)c2=O)c(C)c1	> 30.2 µM	–
COc1ccccc1CNC(=O)N1CCN(Cc2cc(C)on2)CC1	> 30.2 µM	–
Cc1ccc(C)c(CC(=O)NC2(C#N)CCOCC2)c1	> 30.2 µM	–
COCCC(=O)N1CC2(CCN(Cc3ccoc3)C2)C1	> 30.2 µM	–
CCn1cc(CN2CCC(c3ncc(Cl)cc3S(C)(=O)=O)CC2)c(C)n1	> 30.2 µM	–
Cc1nn(C)c(C)c1NC(=O)CN1CCN(c2nccs2)C(C)C1 (centres undefined)	> 30.2 µM	–
CN1CCc2nnc(C3CCCN3S(=O)(=O)c3ccc(F)cc3)n2CC1 (centres undefined)	> 30.2 µM	–
COc1ccc(-n2c(CCC(=O)O)nc3ccccc32)cc1CO	> 50.1 µM	68.6 µM and 44 µM
CCC(NC(=O)c1cc(CC(C)C)nn1C)c1cccc(C)n1 (centres undefined)	> 30.2 µM	–
O=c1c2ccccc2nc2n1CCC2O (centres undefined)	> 30.2 µM	–
Cc1cnn(CC2CCCN2C(=O)c2cccc(S(C)(=O)=O)c2)c1 (centres undefined)	> 30.2 µM	–
O[C@]12CCNC[C@H]1CN(c1ncccc1Cl)CC2	> 30.2 µM	–

SMILES	IC50 [1]	IC50 (Histidine--tRNA ligase)
O=C(O)COc1ccc(CN2CCCC(CCc3ccccc3)C2)cc1 (centres undefined)	19.9 µM and 19.6 µM	–
CN(C)CC(=O)N1CCC2(CC1)CN(c1ccsc1)C(=O)CO2	> 30.2 µM	–
CC(NCC1(N(C)C)CCOCC1)c1ccc(SC(F)F)cc1 (centres undefined)	> 30.2 µM	–
c1csc(C2(NCc3csc(C4CC4)n3)CCCC2)n1	> 30.2 µM	57.3 µM and 56.6 µM
CC(NC(=O)Nc1cccnc1N1CCCC1)c1ccn(C)c1 (centres undefined)	> 30.2 µM	–
COc1ccc(CNC(=O)NC(C)(CO)C2CC2)c(C(F)(F)F)c1 (centres undefined)	> 30.2 µM	–
NS(=O)(=O)c1cccnc1Nc1c(Cl)cccc1Cl	> 30.2 µM	–
COc1cccc2cc(CNCc3ccc(N4CCCC4)nc3)oc12	> 30.2 µM	–
CCc1noc(C(C)N2CCN(CCN3CCCC3=O)CC2)n1 (centres undefined)	> 30.2 µM	–
Cc1ncnc2c1CCN(C(=O)c1ccoc1)CC2	> 30.2 µM	–
Cc1nonc1C1CCCN1Cc1ccc(C(=O)Nc2nccs2)cc1 (centres undefined)	> 30.2 µM	–
O=C(Cc1cccc2ccccc12)N1CCC(Nc2cccnn2)CC1	> 30.2 µM	–
CC(C)C1CN(C(=O)c2cn3cc(Cl)cnc3n2)CCCN1CC1CC1 (centres undefined)	> 30.2 µM	–
CCCc1noc(C(C)N2CCN(CCn3ccccc3=O)CC2)n1 (centres undefined)	> 30.2 µM	–
CC[C@@H](Cn1ncc2ccccc2c1=O)NC(=O)c1ccco1	> 30.2 µM	–
COc1ccc(NC2CCCN(Cc3cnc(N(C)C)s3)C2)cc1OC (centres undefined)	> 30.2 µM	–
O=C(CCC1CCN(C2CCSCC2)CC1)NCC1CCCO1 (centres undefined)	> 30.2 µM	–
Cn1cc(CN2CCCC3(CCN(Cc4ccncc4)C3=O)C2)cn1 (centres undefined)	> 30.2 µM	–
NC(=O)C1CCN(S(=O)(=O)c2cnn(-c3ccccc3)c2)C1 (centres undefined)	> 30.2 µM	–
CCN(C)C[C@@H]1CN(C(=O)NC2CCCCC2)C[C@@H]1CO	> 30.2 µM	–
